Format in all cases: cell-based
The test system of assay [1] is Methylococcus capsulatus (CRL M1, NRRL B-11,219). The experiment in a line: Oxidation/epoxidation by washed cell suspensions. The note with it: propylene alone (control); 3 Hr. As for the experimental part: The pH of the nutrient medium was adjusted to 7.0 by the addition of acid or base and 50 ml aliquots of the nutrient medium was charged into a plurality of 300 ml shake flasks. […] The isolates had been maintained on agar plates under an atmosphere of methane and air having a 1:1 v/v gas ratio which had been transferred every two weeks. The gaseous phase of the inoculated flasks was then replaced with a gas mixture comprised of methane and air having a ratio of 1:1 on a v/v basis. The inoculated flasks were sealed air tight and were incubated on a rotary shaker of orbital radius 2.5 cm at 250 rpm and at 30° C. for two days until the turbidity in the medium had developed.
(§1) The cells were harvested by centrifugation at 10,000 ×g at 4° C. for 30 minutes. The cell pellet was washed twice with a 0.15 M phosphate buffer at a pH of 7.0 (containing 0.002 M MgCl2). The washed cells were then suspended in a 0.15 M phosphate buffer at pH 7.0.
(§2) A 0.5 ml aliquot of each washed cell suspension (2 mg cells) was put into 10 ml vials at 4° C. which were sealed with a rubber cap. The gaseous phase of the vials was removed with vacuum and then was replaced with a gas mixture of alkene and oxygen at a 1:1 v/v ratio. It was then incubated at 30° C. on a rotary shaker at 300 rpm. Samples of product (3 μl) were withdrawn periodically with a microsyringe and the products were analyzed by gas chromatography (ionization flame detector column).
The experimental procedure described in Example 1 was used to prepare washed cell suspensions of methane-grown microorganisms and the use of the same to oxidize or epoxidize the branched chain alkanes, alkenes and dienes.

Assay [2] relates to Methylobacter capsulatus Y (NRRL B-11,201). The experiment in a line: Methane hydroxylation and propylene epoxidation by washed cell suspensions. As for the experimental part:
(§3) The pH of the nutrient medium was adjusted to 7.0 by the addition of acid or base and 50 ml aliquots of the nutrient medium was charged into a plurality of 300 ml shake flasks. The shake flasks were inoculated with an inoculating loop of cells from an agar plate containing homogeneous colonies of the microorganisms on the plate (the purity of the isolates were confirmed by microscopic examination). The isolates had been maintained on agar plates under an atmosphere of methane and air having a 1:1 v/v gas ratio which had been transferred every two weeks. The gaseous phase of the inoculated flasks was then replaced with a gas mixture comprised of methane and air having a ratio of 1:1 on a v/v basis. The inoculated flasks were sealed air tight and were incubated on a rotary shaker of orbital radius 2.5 cm at 250 rpm and at 30° C. for two days until the turbidity in the medium had developed.
as §1
A 0.5 ml aliquot of each washed cell suspension (2 mg cells) was put into 10 ml vials at 4° C. which were sealed with a rubber cap. […] It was then incubated at 30° C. on a rotary shaker at 300 rpm. Samples of product (3 μl) were withdrawn periodically with a microsyringe and the products were analyzed by gas chromatography (ionization flame detector column).
Several experiments were carried out using a plurality of compounds capable of generating the necessary reducing power (NADH2 or NADPH2) required for the epoxidation of alkenes or dienes. […]

Assay [3] concerns Methylobacterium organophilum (CRL 26, NRRL B-11,222). The experiment in a line: Epoxidation/hydroxylation by washed cell suspensions. The note with it: propylene alone. How it is done:
as §3, §1, §2
(§4) Several experiments were carried out using a plurality of compounds capable of generating the necessary reducing power (NADH2 or NADPH2) required for the epoxidation of alkenes or dienes. These experiments were carried out using cell suspensions of methane grown methylotrophs using the procedure as described in Example 1 except that a stimulator compound was added to the reaction medium.

Assay [4] deals with Methylococcus capsulatus strain MC. The experiment in a line: Stimulation of propylene epoxidation in cell suspensions. The following applies: propylene alone. How it is done:
as §3, §1, §2, §4

The structures appear in SMILES notation.

Consider `C=CC` [Propylene], for which, in assay [1], the “Epoxidation Rate, Propylene oxide” value was determined as 3.9 μmoles/0.5 ml. Moreover, the “Conversion rate, propylene to propylene oxide” value in assay [2] (methane-grown washed cells, 30° C.) is 1.5 μmole/hr/mg protein. Also, the “Rate of Product Formation (Propylene Oxide)” value in assay [2] (propylene alone) came to 2 nmoles/hr/mg protein; in assay [3], 10 nmoles/hr/mg protein; in assay [4] it was 3.5 nmoles/hr/mg protein.
